Experimental data from ChEMBL document CHEMBL6087406, “2-Arylhydrazinylidene-3-oxo-3-polyfluoroalkylpropanoic acids as selective and effective carboxylesterase inhibitors with powerful antioxidant potential” (Bioorg Med Chem, 2024).
The source made the active and inactive calls. The rule behind the calls is not given here.

Key:
[1] = Antioxidant activity assessed as ORAC radical scavenging activity by measuring fold change in trolox equivalent at 10 uM measured for 2 hrs by AAPH based fluorescence microplate reader relative to trolox; type: functional
Liver carboxylesterase [2] = target: T1, Liver carboxylesterase (Sus scrofa, UniProt Q29550); assay: Inhibition of porcine liver carboxylesterase using 4-nitrophenylacetate as substrate assessed as release of 4-nitrophenol by spectrophotometric analysis
T1 sequence (Q29550 whole entry): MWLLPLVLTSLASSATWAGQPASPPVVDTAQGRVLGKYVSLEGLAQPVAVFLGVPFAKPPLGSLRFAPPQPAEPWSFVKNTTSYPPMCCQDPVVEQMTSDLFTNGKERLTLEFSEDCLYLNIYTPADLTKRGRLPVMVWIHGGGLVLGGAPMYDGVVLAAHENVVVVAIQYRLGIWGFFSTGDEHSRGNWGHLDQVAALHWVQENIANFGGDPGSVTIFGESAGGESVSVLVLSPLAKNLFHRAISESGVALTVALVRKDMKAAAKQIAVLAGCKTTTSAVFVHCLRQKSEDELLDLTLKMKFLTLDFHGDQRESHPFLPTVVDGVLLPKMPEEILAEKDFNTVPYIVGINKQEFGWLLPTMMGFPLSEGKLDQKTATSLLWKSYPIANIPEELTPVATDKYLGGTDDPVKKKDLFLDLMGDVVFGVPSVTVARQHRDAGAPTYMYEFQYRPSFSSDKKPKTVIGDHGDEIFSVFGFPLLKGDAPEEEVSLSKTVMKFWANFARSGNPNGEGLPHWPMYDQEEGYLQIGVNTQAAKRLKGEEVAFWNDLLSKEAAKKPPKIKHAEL

[3] = target: Acetylcholinesterase (Homo sapiens) (UniProt P22303); assay: Inhibition of human erythrocyte acetylcholinesterase using acetylthiocholine as substrate at 20 uM by Ellman's method relative to control
Acetylcholinesterase (Homo sapiens), sequence (P22303 whole entry): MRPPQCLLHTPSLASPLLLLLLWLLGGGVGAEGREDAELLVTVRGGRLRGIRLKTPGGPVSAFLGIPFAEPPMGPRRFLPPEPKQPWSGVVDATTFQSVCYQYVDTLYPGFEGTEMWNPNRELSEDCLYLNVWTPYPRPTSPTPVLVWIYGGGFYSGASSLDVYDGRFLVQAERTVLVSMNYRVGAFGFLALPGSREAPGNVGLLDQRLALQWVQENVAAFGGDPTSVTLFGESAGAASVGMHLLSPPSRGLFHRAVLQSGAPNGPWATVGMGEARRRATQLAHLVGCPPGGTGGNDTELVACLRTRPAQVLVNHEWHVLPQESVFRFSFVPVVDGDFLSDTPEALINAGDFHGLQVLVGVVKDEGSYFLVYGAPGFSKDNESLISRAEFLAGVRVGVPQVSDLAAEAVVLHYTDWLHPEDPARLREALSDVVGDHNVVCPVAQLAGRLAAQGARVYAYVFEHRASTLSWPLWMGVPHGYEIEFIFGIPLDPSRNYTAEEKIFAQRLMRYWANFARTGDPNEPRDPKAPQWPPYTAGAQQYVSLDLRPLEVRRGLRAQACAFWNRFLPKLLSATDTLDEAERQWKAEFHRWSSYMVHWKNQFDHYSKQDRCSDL

[4] = target: Cholinesterase (Equus caballus) (UniProt P81908); assay: Inhibition of equine serum butyrylcholinesterase using butyrylthiocholine as substrate at 20 uM by Ellman's method relative to control
Cholinesterase (Equus caballus), sequence (P81908 whole entry): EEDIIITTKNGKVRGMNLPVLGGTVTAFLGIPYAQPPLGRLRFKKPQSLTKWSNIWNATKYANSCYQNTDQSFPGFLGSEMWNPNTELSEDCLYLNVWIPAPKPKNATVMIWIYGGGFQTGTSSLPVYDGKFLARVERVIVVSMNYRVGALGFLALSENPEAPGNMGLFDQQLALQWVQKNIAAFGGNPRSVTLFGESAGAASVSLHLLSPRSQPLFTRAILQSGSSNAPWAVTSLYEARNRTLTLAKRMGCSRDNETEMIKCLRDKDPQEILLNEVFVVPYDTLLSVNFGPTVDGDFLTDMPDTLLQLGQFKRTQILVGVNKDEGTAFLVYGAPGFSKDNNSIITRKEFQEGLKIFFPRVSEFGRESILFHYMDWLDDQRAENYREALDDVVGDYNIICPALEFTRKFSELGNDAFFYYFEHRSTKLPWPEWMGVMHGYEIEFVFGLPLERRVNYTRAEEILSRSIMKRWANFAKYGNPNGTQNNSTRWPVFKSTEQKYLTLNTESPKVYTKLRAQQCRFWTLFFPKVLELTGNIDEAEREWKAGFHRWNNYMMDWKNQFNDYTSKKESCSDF

[5] = Antioxidant activity assessed as ABTS radical scavenging activity by measuring trolox equivalent antioxidant capacity after 1 hrs by UV/Vis microplate spectrophotometric analysis; type: functional
[6] = Antioxidant activity assessed as reduction in ABTS radical measured after 1 hrs by UV/Vis microplate spectrophotometric analysis; type: functional
[7] = Antioxidant activity assessed as trolox equivalent of FRAP radical scavenging activity measured after 1 hrs by spectrophotometric analysis; type: functional
[8] = Antioxidant activity assessed as trolox equivalent of ORAC radical scavenging activity at 10 uM measured for 2 hrs by AAPH based fluorescence microplate reader; type: functional
Liver carboxylesterase [9] = target: T1, Liver carboxylesterase; assay: Inhibition of porcine liver carboxylesterase using 4-nitrophenylacetate as substrate assessed as release of 4-nitrophenol at 20 uM by spectrophotometric analysis relative to control; details: pig, porcine liver carboxylesterase (isolated enzyme), probe 4-nitrophenylacetate
[10] = Antioxidant activity against AAPH-induced oxidative stress in Sprague-Dawley rat erythrocytes assessed as membrane stabilizing activity by measuring hemolysis at 100 uM preincubated for 15 mins followed by AAPH addition and measured after 3 hrs by microplate reader analysis (reference value: 88.6 +/- 3.7%); type: functional, Erythrocyte; details: time 195 min, 3.25 h
[11] = Antioxidant activity against AAPH-induced oxidative stress in Sprague-Dawley rat erythrocytes assessed as inhibition of lipid peroxidation by measuring fold change at 100 uM preincubated for 15 mins followed by AAPH addition and measured after 3 hrs by TBARS assay (reference value: 1); type: functional, Erythrocyte; details: time 195 min, 3.25 h
[12] = Hemolytic activity in AAPH-induced Sprague-Dawley rat erythrocytes assessed as hemolysis at 100 uM measured after 3 hrs by microplate reader analysis relative to control; type: toxicity, cell-based, Erythrocyte; details: read-out: Activity
[13] = Metal chelating activity assessed as Fe2+-compound complex formation by measuring absorbance at 400 uM measured after 30 mins in presence of FeCl2.4H2O by UV-Vis spectroscopic analysis (reference value: 225 to 374 nanometer)
Liver carboxylesterase 1 = target: T2, Liver carboxylesterase 1 (Homo sapiens, UniProt P23141); assay: Inhibition of human CES1 using 4-nitrophenylacetate as substrate assessed as release of 4-nitrophenol by spectrophotometric analysis
T2 sequence (P23141 whole entry): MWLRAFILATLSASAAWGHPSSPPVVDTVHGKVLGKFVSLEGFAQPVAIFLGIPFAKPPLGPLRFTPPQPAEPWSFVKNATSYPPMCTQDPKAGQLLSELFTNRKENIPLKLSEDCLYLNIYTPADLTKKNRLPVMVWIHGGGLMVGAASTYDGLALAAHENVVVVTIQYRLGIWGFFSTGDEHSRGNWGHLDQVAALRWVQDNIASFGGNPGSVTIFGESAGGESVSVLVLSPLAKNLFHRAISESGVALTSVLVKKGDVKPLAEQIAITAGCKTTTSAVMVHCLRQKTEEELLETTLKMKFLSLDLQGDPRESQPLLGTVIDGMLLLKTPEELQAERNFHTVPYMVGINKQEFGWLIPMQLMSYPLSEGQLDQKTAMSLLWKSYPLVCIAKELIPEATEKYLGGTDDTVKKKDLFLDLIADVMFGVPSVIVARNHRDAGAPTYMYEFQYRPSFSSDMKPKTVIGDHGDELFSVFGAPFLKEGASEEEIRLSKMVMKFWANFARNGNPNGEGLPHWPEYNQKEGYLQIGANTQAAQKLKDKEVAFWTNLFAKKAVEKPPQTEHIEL

Cocaine esterase = target: T3, Cocaine esterase (Homo sapiens, UniProt O00748); assay: Inhibition of human CES2 using 4-nitrophenylacetate as substrate assessed as release of 4-nitrophenol by spectrophotometric analysis
T3 sequence (O00748 whole entry): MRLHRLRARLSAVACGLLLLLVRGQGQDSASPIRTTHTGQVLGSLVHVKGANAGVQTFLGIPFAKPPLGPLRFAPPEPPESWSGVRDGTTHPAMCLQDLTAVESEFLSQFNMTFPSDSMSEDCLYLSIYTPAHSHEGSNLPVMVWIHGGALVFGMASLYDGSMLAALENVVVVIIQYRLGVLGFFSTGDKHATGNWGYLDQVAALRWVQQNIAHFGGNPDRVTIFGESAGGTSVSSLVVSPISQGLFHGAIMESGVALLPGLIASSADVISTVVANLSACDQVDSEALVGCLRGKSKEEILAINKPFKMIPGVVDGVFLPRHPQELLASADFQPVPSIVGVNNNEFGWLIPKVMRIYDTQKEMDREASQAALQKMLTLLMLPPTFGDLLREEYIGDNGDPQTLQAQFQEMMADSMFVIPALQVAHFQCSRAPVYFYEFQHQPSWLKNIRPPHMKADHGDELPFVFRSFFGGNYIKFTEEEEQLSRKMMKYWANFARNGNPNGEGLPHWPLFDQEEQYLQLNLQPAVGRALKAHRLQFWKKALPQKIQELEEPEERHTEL

[14] = Metal chelating activity assessed as Fe2+-compound complex formation by measuring absorbance at 400 uM measured after 30 mins in presence of FeCl2.4H2O by UV-Vis spectroscopic analysis (reference value: 245 to 373 nanometer)
Liver carboxylesterase [15] = target: T1, Liver carboxylesterase; assay: Reversible mixed type inhibition of porcine liver carboxylesterase using 4-nitrophenylacetate as substrate assessed as inhibition constant of competitive component by Lineweaver-Burk plot analysis
Liver carboxylesterase [16] = target: T1, Liver carboxylesterase; assay: Reversible mixed type inhibition of porcine liver carboxylesterase using 4-nitrophenylacetate as substrate assessed as inhibition constant of non-competitive component by Lineweaver-Burk plot analysis
[17] = Metal chelating activity assessed as Fe2+-compound complex formation by measuring absorbance at 400 uM measured after 30 mins in presence of FeCl2.4H2O by UV-Vis spectroscopic analysis (reference value: 253 to 384 nanometer)

Row | SMILES | fold change (FC) [1] | IC50 (Liver carboxylesterase [2]) [µM] | inhibition [3] | inhibition [4] | Activity [5] | IC50 [6] [µM] | Activity [7] | Activity [8] | other results
1 | CCOC(=O)c1ccccc1N/N=C(\C(=O)O)C(=O)C(F)(F)F | > 3 | – | – | – | – | – | – | – | –
2 | Cc1ccc(N/N=C(\C(=O)O)C(=O)C(F)(F)C(F)(F)F)cc1 | > 3 | 0.122 | 10.2% | 15.5% | 1.45 | 9.9 | 1.71 | 3.7 | –
3 | COc1ccc(N/N=C(\C(=O)O)C(=O)C(F)(F)C(F)F)cc1 | > 3 | 52.1 | 4.2% | 3.5% | 1.8 | 10.2 | 1.9 | 3.73 | –
4 | O=C(O)/C(=N\Nc1ccc([N+](=O)[O-])cc1)C(=O)C(F)(F)F | > 3 | – | – | – | – | – | 0.24 | – | –
5 | CCOC(=O)c1ccc(N/N=C(/C(C)=O)C(=O)O)cc1 | – | – | inactive | inactive | 1.36 | 10.2 | 0.19 | 0.47 | inhibition at 20 µM (Liver carboxylesterase [9]): 16.1%
6 | CC(=O)/C(=N/Nc1ccc(C(=O)O)cc1)C(=O)O | > 3 | – | 5.8% | 8.2% | 1.25 | 10.3 | 0.41 | 2.2 | inhibition at 20 µM (Liver carboxylesterase [9]): 18.6%
7 | CCOC(=O)c1ccc(N/N=C(\C(=O)O)C(=O)C(F)(F)F)cc1 | > 3 | – | – | – | – | – | – | – | –
8 | Cc1c(C)c2c(c(C)c1O)CCC(C)(C(=O)O)O2 (configuration not stated) [TROLOX] | – | – | – | – | 1 | 20.4 | 1 | 1 | Activity [10]: 56.7%; fold change (FC) [11]: 0.85
9 | COc1ccc(N/N=C(\C(=O)O)C(=O)C(F)(F)C(F)(F)C(F)(F)C(F)(F)F)cc1 | > 3 | 0.297 | 4.4% | 19.9% | 1.9 | 9.5 | 1.68 | 3.87 | –
10 | O=C(O)/C(=N\Nc1ccccc1)C(=O)C(F)(F)F | > 3 | 0.75 | 16.5% | 4% | 1.6 | 8.6 | 1.48 | 3.7 | –
11 | COc1ccc(N/N=C(\C(=O)O)C(=O)C(F)(F)F)cc1 | > 3 | – | – | – | – | – | 2.77 | 3.6 | Activity [10]: 58.6%; hemolysis at 3 h, 100 µM [12]: 2%; fold change (FC) [11]: 0.64; Activity [13]: 267 nm
12 | CCOC(=O)c1ccccc1N/N=C(\C(=O)O)C(=O)C(F)(F)C(F)(F)C(F)(F)C(F)(F)F | > 3 | 0.14 | 24% | 13.7% | 0.02 | – | – | 1.7 | –
13 | Cc1ccc(N/N=C(\C(=O)O)C(=O)C(F)(F)C(F)F)cc1 | > 3 | 5.58 | inactive | 5.7% | 1.7 | 9.3 | 1.69 | – | –
14 | Cc1ccc(N/N=C(\C(=O)O)C(=O)C(F)F)cc1 | > 3 | – | 10.2% | inactive | 1.67 | 9.8 | 2.1 | 3.13 | inhibition at 20 µM (Liver carboxylesterase [9]): 23.8%
15 | Cc1ccc(N/N=C(\C(=O)O)C(=O)C(F)(F)F)cc1 | > 3 | – | – | – | – | – | 2.63 | 3.03 | IC50 (Liver carboxylesterase 1): 0.921 µM; IC50 (Cocaine esterase): 0.097 µM
16 | COc1ccc(N/N=C(/C(C)=O)C(=O)O)cc1 | > 3 | – | – | – | – | – | 2.5 | 3.67 | Activity [10]: 45.6%; hemolysis at 3 h, 100 µM [12]: 2%; fold change (FC) [11]: 0.24; Activity [14]: 263 nm
17 | Cc1ccc(N/N=C(\C(=O)O)C(=O)C(F)(F)C(F)(F)C(F)(F)C(F)(F)F)cc1 | > 3 | 0.042 | 9.8% | inactive | 1.37 | 10.9 | 0.14 | 3.2 | IC50 (Liver carboxylesterase 1): 0.102 µM; IC50 (Cocaine esterase): 0.109 µM; Ki (Liver carboxylesterase [15]): 0.018 µM; Ki (Liver carboxylesterase [16]): 0.027 µM
18 | Cc1ccc(N/N=C(\C(=O)O)C(=O)C(F)(F)C(F)(F)C(F)(F)F)cc1 | > 3 | 0.047 | 14.7% | 11.6% | 1.97 | 9.1 | 0.68 | 3.27 | –
19 | CC(=O)/C(=N/Nc1ccc(C)cc1)C(=O)O | > 3 | – | – | – | – | – | 1.69 | 3.37 | –
20 | COc1ccc(N/N=C(\C(=O)O)C(=O)C(F)(F)C(F)(F)C(F)(F)F)cc1 | > 3 | 0.096 | 19.4% | 13.4% | 2.1 | 8.2 | 1.86 | 3.67 | Activity [10]: 95.9%; hemolysis at 3 h, 100 µM [12]: 2%; fold change (FC) [11]: 0.63; Activity [17]: 271 nm
21 | CC(=O)/C(=N/Nc1ccccc1)C(=O)O | > 3 | – | 4.7% | inactive | 1.6 | 9.8 | 0.79 | 3.43 | inhibition at 20 µM (Liver carboxylesterase [9]): 17.9%
22 | O=[N+]([O-])c1ccc(OP(=O)(O)Oc2ccc([N+](=O)[O-])cc2)cc1 | – | – | inactive | inactive | – | – | – | – | –
